In patent US11395492B2, “Antimicrobial and agrochemical compositions” (Myco Sciences Limited, priority 2015, dated 2022):
Where two headings read alike, the source gives them in different places.

Experiments:
Rhizoctonia solani [1] = tested on: Rhizoctonia solani
Procedure: To assess the effects of composition on fungal growth, 10 microliters of the test compositions diluted in sterile distilled water were placed in the wells of a 12-well tissue culture plate and 1 milliliter of PDA was added by pipette to each well. The plate was agitated to distribute the test composition evenly throughout the agar (distilled water alone was used as control) and then the agar was allowed to set. Plugs of agar containing fungal hyphae (3×3 millimeters) from an established fungal culture were cut out using a scalpel and inserted into holes cut into the centre of the agar in each well of the 12-well plate, which was then cultured at room temperature (22° C.). To assess the effects of compositions on radial fungal growth, the diameter the fungal hyphae was measured twice at a 90° angle using a ruler and the average diameter in millimeters was calculated. If no fungal growth could be detected by eye, the cultures were observed by phase microscopy (40×) to confirm that there was no growth (NG) as judged by visual examination.
To assess the effects of compounds and compositions on sclerotia formation, the R. solani cultures were examined daily and radial fungal growth was measured until the cultures were confluent after which time the development of white (immature) sclerotia and mature (black pigmented) sclerotia was noted and the number of mature sclerotia was counted on day 10 of culture.

Magnaporthe oryzae = format: cell-based; settings: for M. oryzae fungal growth (mm): 30 min exposure, 4 days culture
spores of F. oxysporum = experiment: Sporicidal assay (1) with sodium nitrite, F. oxysporum; format: cell-based, Fusarium oxysporum f. sp. cubense; settings: 30 min
[2] = pH of diluted compositions and components; format: physicochemical
Rhizoctonia solani [3] = experiment: Inhibition of fungal growth assay (radial growth on PDA); settings: for IC50 (% of stock solution) on growth of R. solani: potato dextrose agar, 24 hour culture at 22° C.
Procedure: Inhibition of fungal growth assay. The Rhizoctonia solani (R. solani) strain was isolated from sclerotia on the skin of a potato and was maintained in culture on potato dextrose agar (PDA) at room temperature (22° C.). To assess the effects of the compositions on fungal growth, 10 microliters of the test compositions diluted in sterile distilled water was placed in the wells of a 12-well tissue culture plate and 1 milliliter of PDA was added by pipette to each well. The plate was agitated to distribute the test composition evenly throughout the agar (distilled water alone was used as control) and then the agar was allowed to set. Plugs of agar containing fungal hyphae (3×3 millimeters) from an established fungal culture were cut out using a scalpel and inserted into holes cut into the centre of the agar in each well of the 12-well plate, which was then cultured at room temperature. To assess the effects of compositions on radial fungal growth, the diameter of the fungal hyphae was measured twice at a 90° angle using a ruler and the average diameter in millimeters was calculated. Concentrations of compositions required to inhibit the radial growth of R. solani by 50% (IC50) were determined graphically.

spores of B. cinerea = experiment: Sporicidal assay (1) with sodium nitrite, B. cinerea; format: cell-based, Botrytis cinerea; settings: 30 min
[4] = FIG. 3, 2 to 3 replicate experiments

For `NCP(=O)(O)O` [AMPA, aminomethyl phosphonic acid], the “Day 1 growth in mm” value (Rhizoctonia solani [1]; 0.1 g/L (Table 11)) was 20 mm, the “Day black SCL 1st seen” value (Rhizoctonia solani [1]; 0.1 g/L (Table 11)) was 5 and the Day growth confluent (Rhizoctonia solani [1]; 0.1 g/L (Table 11)) was 2. The “Day white SCL 1st seen” value (Rhizoctonia solani [1]; 0.1 g/L (Table 11)) was 3, the “No. black SCL on day 10” value (Rhizoctonia solani [1]; 0.1 g/L (Table 11)) was greater than 20 and the “Day 1 growth in mm” value (Rhizoctonia solani [1]; 0.3 g/L (Table 11)) was 19 mm. The “Day black SCL 1st seen” value (Rhizoctonia solani [1]; 0.3 g/L (Table 11)) was 8, the Day growth confluent (Rhizoctonia solani [1]; 0.3 g/L (Table 11)) was 2 and the “Day white SCL 1st seen” value (Rhizoctonia solani [1]; 0.3 g/L (Table 11)) was 3. The “No. black SCL on day 10” value (Rhizoctonia solani [1]; 0.3 g/L (Table 11)) was greater than 20, the “Day 1 growth in mm” value (Rhizoctonia solani [1]; 1 g/L (Table 11)) was 17 mm and the “Day black SCL 1st seen” value (Rhizoctonia solani [1]; 1 g/L (Table 11)) was 9. The Day growth confluent (Rhizoctonia solani [1]; 1 g/L (Table 11)) was 2, the “Day white SCL 1st seen” value (Rhizoctonia solani [1]; 1 g/L (Table 11)) was 5 and the “No. black SCL on day 10” value (Rhizoctonia solani [1]; 1 g/L (Table 11)) was 5.
With `OP(O)O` [Composition H3PO3, phosphorous acid] the “Day 1 growth in mm” value (Rhizoctonia solani [1]; 10 mg/L (Table 9)) was 18 mm, the “Day black SCL 1st seen” value (Rhizoctonia solani [1]; 10 mg/L (Table 9)) was 5 and the Day growth confluent (Rhizoctonia solani [1]; 10 mg/L (Table 9)) was 2. The “Day white SCL 1st seen” value (Rhizoctonia solani [1]; 10 mg/L (Table 9)) was 3, the “No. black SCL on day 10” value (Rhizoctonia solani [1]; 10 mg/L (Table 9)) was 17 and the “Day 1 growth in mm” value (Rhizoctonia solani [1]; 12 mg/L (Table 11)) was 20 mm. The “Day black SCL 1st seen” value (Rhizoctonia solani [1]; 12 mg/L (Table 11)) was 6, the Day growth confluent (Rhizoctonia solani [1]; 12 mg/L (Table 11)) was 2 and the “Day white SCL 1st seen” value (Rhizoctonia solani [1]; 12 mg/L (Table 11)) was 3. For the same compound, the “No. black SCL on day 10” value (Rhizoctonia solani [1]; 12 mg/L (Table 11)) was greater than 20, the “Day 1 growth in mm” value (Rhizoctonia solani [1]; 12 mg/L, adjusted to equal amounts of PO3 group (Table 10)) was 18 mm and the “Day black SCL 1st seen” value (Rhizoctonia solani [1]; 12 mg/L, equal PO3 (Table 10)) was 6. The Day growth confluent (Rhizoctonia solani [1]; 12 mg/L, equal PO3 (Table 10)) was 2, the “Day white SCL 1st seen” value (Rhizoctonia solani [1]; 12 mg/L, equal PO3 (Table 10)) was 3 and the “No. black SCL on day 10” value (Rhizoctonia solani [1]; 12 mg/L, equal PO3 (Table 10)) was greater than 20. For the same compound, the “Day 1 growth in mm” value (Rhizoctonia solani [1]; 20 mg/L (Table 9)) was 18 mm, the Day growth confluent (Rhizoctonia solani [1]; 20 mg/L (Table 9)) was 2 and the “Day white SCL 1st seen” value (Rhizoctonia solani [1]; 20 mg/L (Table 9)) was 4. For the same compound, the “No. black SCL on day 10” value (Rhizoctonia solani [1]; 20 mg/L (Table 9)) was 0, the “Day 1 growth in mm” value (Rhizoctonia solani [1]; 40 mg/L (Table 9)) was 16 mm and the Day growth confluent (Rhizoctonia solani [1]; 40 mg/L (Table 9)) was 2. The “No. black SCL on day 10” value (Rhizoctonia solani [1]; 40 mg/L (Table 9)) was 0, the “Day 1 growth in mm” value (Rhizoctonia solani [1]; 40 mg/L (Table 11)) was 19 mm and the Day growth confluent (Rhizoctonia solani [1]; 40 mg/L (Table 11)) was 2. For the same compound, the “No. black SCL on day 10” value (Rhizoctonia solani [1]; 40 mg/L (Table 11)) was 0, the “Day 1 growth in mm” value (Rhizoctonia solani [1]; 40 mg/L, adjusted to equal amounts of PO3 group (Table 10)) was 16 mm and the Day growth confluent (Rhizoctonia solani [1]; 40 mg/L, equal PO3 (Table 10)) was 2. The “No. black SCL on day 10” value (Rhizoctonia solani [1]; 40 mg/L, equal PO3 (Table 10)) was 0, the “Day 1 growth in mm” value (Rhizoctonia solani [1]; 80 mg/L (Table 9)) was 14 mm and the Day growth confluent (Rhizoctonia solani [1]; 80 mg/L (Table 9)) was 3. For the same compound, the “No. black SCL on day 10” value (Rhizoctonia solani [1]; 80 mg/L (Table 9)) was 0, the “Day 1 growth in mm” value (Rhizoctonia solani [1]; 120 mg/L (Table 11)) was 14 mm and the Day growth confluent (Rhizoctonia solani [1]; 120 mg/L (Table 11)) was 3. The “No. black SCL on day 10” value (Rhizoctonia solani [1]; 120 mg/L (Table 11)) was 0, the “Day 1 growth in mm” value (Rhizoctonia solani [1]; 120 mg/L, adjusted to equal amounts of PO3 group (Table 10)) was 10 mm and the Day growth confluent (Rhizoctonia solani [1]; 120 mg/L, equal PO3 (Table 10)) was 4. The “No. black SCL on day 10” value (Rhizoctonia solani [1]; 120 mg/L, equal PO3 (Table 10)) was 0, the “Day 1 growth in mm” value (Rhizoctonia solani [1]; 160 mg/L (Table 9)) was 11 mm and the Day growth confluent (Rhizoctonia solani [1]; 160 mg/L (Table 9)) was 3. The “No. black SCL on day 10” value (Rhizoctonia solani [1]; 160 mg/L (Table 9)) was 0, the “Day 1 growth in mm” value (Rhizoctonia solani [1]; 400 mg/L (Table 11)) was 6 mm and the “No. black SCL on day 10” value (Rhizoctonia solani [1]; 400 mg/L (Table 11)) was 0. The “Day 1 growth in mm” value (Rhizoctonia solani [1]; 400 mg/L, adjusted to equal amounts of PO3 group (Table 10)) was 5 mm, the “No. black SCL on day 10” value (Rhizoctonia solani [1]; 400 mg/L, equal PO3 (Table 10)) was 0 and the “times more active than AMPA at inhibiting black sclerotia formation” value (Rhizoctonia solani [1]; [4]) was “around 30 times”. The “times more active than glyphosate at inhibiting black sclerotia formation” value (Rhizoctonia solani [1]; [4]) was “around 20 times”, the “M. oryzae fungal growth (mm)” value (Magnaporthe oryzae; NaNO2 0 mM, composition 1%) was 21 mm and the “M. oryzae fungal growth (mm)” value (Magnaporthe oryzae; NaNO2 10 mM, composition 0.1%) was 20 mm. The “percent of control (A, B, M) used to calculate Sf” value (Magnaporthe oryzae; NaNO2 10 mM, composition 0.3%) was 38%, the “M. oryzae fungal growth (mm)” value (Magnaporthe oryzae; NaNO2 10 mM, composition 0.3%) was 13 mm and the “percent of control (A, B, M) used to calculate Sf” value (Magnaporthe oryzae; NaNO2 10 mM, composition 1%) was 48%. For the same compound, the “M. oryzae fungal growth (mm)” value (Magnaporthe oryzae; NaNO2 10 mM, composition 1%) was 11 mm, the “fungicidal activity to M. oryzae” value (Magnaporthe oryzae; absence of sodium nitrite, 1% of stock solution) was “not fungicidal” and the “Fungal growth score, spores of F. oxysporum” value (spores of F. oxysporum; NaNO2 0 mM, test item 0.3%) was 2. The “Fungal growth score, spores of F. oxysporum” value (spores of F. oxysporum; NaNO2 1 mM, test item 0.03%) was 2, the “Fungal growth score, spores of F. oxysporum” value (spores of F. oxysporum; NaNO2 1 mM, test item 0.1%) was 2 and the “Fungal growth score, spores of F. oxysporum” value (spores of F. oxysporum; NaNO2 1 mM, test item 0.3%) was 2. For the same compound, the “Fungal growth score, spores of F. oxysporum” value (spores of F. oxysporum; NaNO2 3 mM, test item 0.03%) was 2, the “Fungal growth score, spores of F. oxysporum” value (spores of F. oxysporum; NaNO2 3 mM, test item 0.1%) was 2 and the “Fungal growth score, spores of F. oxysporum” value (spores of F. oxysporum; NaNO2 3 mM, test item 0.3%) was 1. For the same compound, the “Fungal growth score, spores of F. oxysporum” value (spores of F. oxysporum; NaNO2 10 mM, test item 0.03%) was 2, the “Fungal growth score, spores of F. oxysporum” value (spores of F. oxysporum; NaNO2 10 mM, test item 0.1%) was 2 and the “Fungal growth score, spores of F. oxysporum” value (spores of F. oxysporum; NaNO2 10 mM, test item 0.3%) was 0. The “Fungal growth score, spores of F. oxysporum” value (spores of F. oxysporum; NaNO2 30 mM, test item 0.03%) was 2, the “Fungal growth score, spores of F. oxysporum” value (spores of F. oxysporum; NaNO2 30 mM, test item 0.1%) was 1 and the “Fungal growth score, spores of F. oxysporum” value (spores of F. oxysporum; NaNO2 30 mM, test item 0.3%) was 0. For the same compound, the “pH of a 1% solution in DW” value ([2]; 1% in distilled water) was 2.12, the “pH: 1% in DW + 100 mM NaNO2” value ([2]; 1% in distilled water with 100 mM sodium nitrite) was 4.22 and the “IC50 values with R. solani (fungal growth)” value (Rhizoctonia solani [3]) was “around 250 mg/L”. The “IC50 (% of stock solution) on growth of R. solani” value (shortened to “IC50 (% of stock solution)”) (Rhizoctonia solani [3]) was 0.64^+ % of stock solution, the “IC50 (% of stock solution)” value (Rhizoctonia solani [3]; listed as phosphorous acid) was 0.64 % of stock solution and the “Fungal growth score, spores of B. cinerea” value (spores of B. cinerea; NaNO2 0 mM, test item 0.1%) was 2. For the same compound, the “Fungal growth score, spores of B. cinerea” value (spores of B. cinerea; NaNO2 0 mM, test item 0.3%) was 2, the “Fungal growth score, spores of B. cinerea” value (spores of B. cinerea; NaNO2 0 mM, test item 1%) was 2 and the “Fungal growth score, spores of B. cinerea” value (spores of B. cinerea; NaNO2 1 mM, test item 0.1%) was 2. For the same compound, the “Fungal growth score, spores of B. cinerea” value (spores of B. cinerea; NaNO2 1 mM, test item 0.3%) was 2, the “Fungal growth score, spores of B. cinerea” value (spores of B. cinerea; NaNO2 1 mM, test item 1%) was 2 and the “Fungal growth score, spores of B. cinerea” value (spores of B. cinerea; NaNO2 3 mM, test item 0.1%) was 2. For the same compound, the “Fungal growth score, spores of B. cinerea” value (spores of B. cinerea; NaNO2 3 mM, test item 0.3%) was 2, the “Fungal growth score, spores of B. cinerea” value (spores of B. cinerea; NaNO2 3 mM, test item 1%) was 1 and the “Fungal growth score, spores of B. cinerea” value (spores of B. cinerea; NaNO2 10 mM, test item 0.1%) was 2. The “Fungal growth score, spores of B. cinerea” value (spores of B. cinerea; NaNO2 10 mM, test item 0.3%) was 2, the “Fungal growth score, spores of B. cinerea” value (spores of B. cinerea; NaNO2 10 mM, test item 1%) was 0 and the “Fungal growth score, spores of B. cinerea” value (spores of B. cinerea; NaNO2 30 mM, test item 0.1%) was 2. For the same compound, the “Fungal growth score, spores of B. cinerea” value (spores of B. cinerea; NaNO2 30 mM, test item 0.3%) was 2, the “Fungal growth score, spores of B. cinerea” value (spores of B. cinerea; NaNO2 30 mM, test item 1%) was 0 and the “Fungal growth score, spores of B. cinerea” value (spores of B. cinerea; NaNO2 100 mM, test item 0.1%) was 2. For the same compound, the “Fungal growth score, spores of B. cinerea” value (spores of B. cinerea; NaNO2 100 mM, test item 0.3%) was 1 and the “Fungal growth score, spores of B. cinerea” value (spores of B. cinerea; NaNO2 100 mM, test item 1%) was 0.
In the case of `[Cl-].[Cu+2].[Cu+2].[OH-].[OH-].[OH-]` [CuOCl-TP, copper oxychloride], the “pH of a 1% suspension in water” value ([2]; 1% suspension in water) is reported as 6.2 and the “IC50 (% of stock solution)” value (Rhizoctonia solani [3]) is reported as 1.8 % of stock solution.
